From BindingDB's records for doi:10.7270/Q2ZG6QNM (University of Pittsburgh, 2008) come the findings set out here.

The target in the experiment is T1, Serine/threonine-protein kinase D1 (Homo sapiens, UniProt Q15139).
T1 sequence (Q15139 whole entry): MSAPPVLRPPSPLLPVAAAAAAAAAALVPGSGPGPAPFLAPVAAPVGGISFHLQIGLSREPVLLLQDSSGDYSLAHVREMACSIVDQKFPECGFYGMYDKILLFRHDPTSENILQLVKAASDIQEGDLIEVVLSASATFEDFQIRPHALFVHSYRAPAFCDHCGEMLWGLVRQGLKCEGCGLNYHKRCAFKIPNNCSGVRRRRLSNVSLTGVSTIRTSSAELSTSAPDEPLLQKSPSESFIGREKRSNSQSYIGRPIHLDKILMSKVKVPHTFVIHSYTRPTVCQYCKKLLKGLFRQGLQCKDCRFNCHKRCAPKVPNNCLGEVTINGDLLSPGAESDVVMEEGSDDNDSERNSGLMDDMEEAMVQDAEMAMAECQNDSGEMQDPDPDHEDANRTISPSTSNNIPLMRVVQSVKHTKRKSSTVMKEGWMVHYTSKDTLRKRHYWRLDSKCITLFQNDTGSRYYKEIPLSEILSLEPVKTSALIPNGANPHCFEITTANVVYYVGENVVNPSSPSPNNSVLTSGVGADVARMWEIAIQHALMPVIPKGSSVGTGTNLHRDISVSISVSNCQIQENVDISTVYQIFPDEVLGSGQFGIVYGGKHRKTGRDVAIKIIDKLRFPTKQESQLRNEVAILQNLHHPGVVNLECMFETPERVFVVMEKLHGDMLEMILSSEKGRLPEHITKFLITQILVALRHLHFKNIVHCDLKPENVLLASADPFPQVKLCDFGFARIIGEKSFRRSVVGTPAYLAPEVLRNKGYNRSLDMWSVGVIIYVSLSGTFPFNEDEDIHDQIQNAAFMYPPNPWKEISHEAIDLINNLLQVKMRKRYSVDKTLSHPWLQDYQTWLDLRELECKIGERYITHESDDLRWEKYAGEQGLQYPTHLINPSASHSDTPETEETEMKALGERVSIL
Briefly: fluorescence polarization artefacts, biochemical, 57K campaign, artefact control, dose response (AID 1342).
Turning to `CCOC(=O)c1sc(=NC(=O)CCS(=O)(=O)c2ccccc2)n(C)c1C` [2-[3-(benzenesulfonyl)-1-oxopropyl]imino-3,4-dimethyl-5-thiazolecarboxylic acid ethyl ester], the IC50 was more than 50 µM.
The same measure for `O=C1CSCN1c1cc(Cl)ccc1Cl` [3-(2,5-dichlorophenyl)-1,3-thiazolan-4-one]: more than 50 µM.
`O=C(CSc1ccc2nnc(-c3cccnc3)n2n1)c1ccccc1` [1-phenyl-2-[[3-(3-pyridinyl)-[1,2,4]triazolo[4,3-b]pyridazin-6-yl]thio]ethanone] showed an IC50 of more than 50 µM.
The same measure for `COc1ccc(CNC(=O)C2Cc3ccccc3CN2C(=O)c2ccco2)cc1` (stereo not drawn) [SMR000343177]: more than 50 µM; for `O=C(O)c1cc(C(=O)C2CCCCC2)c[nH]1` [4-(cyclohexylcarbonyl)-1H-pyrrole-2-carboxylic acid]: more than 50 µM; for `O=[N+]([O-])c1ccc(Nc2c3ccccc3nc3ccccc23)cc1` [MLS000723809]: more than 50 µM.
With `COC(=O)c1c(NC(=O)C2C3CCC(C3)C2C(=O)O)sc2c1CCCCC2` (stereo not drawn) [SMR000298221] the figure was more than 50 µM; with `O=C(NNC1=Nc2cccc3cccc1c23)c1ccc(Br)cc1` [SMR000260645], more than 50 µM.
The same measure for `O=C(Nc1ccccc1C(=O)N1CCCC1)C1COc2ccccc2O1` (stereo not drawn) [SMR000287780]: more than 50 µM.
The molecule `CCCc1cc(=O)[nH]c(SCCCCN2C(=O)c3ccccc3C2=O)n1` [2-[4-[(4-oxidanylidene-6-propyl-1H-pyrimidin-2-yl)sulfanyl]butyl]isoindole-1,3-dione] had an IC50 of more than 50 µM.
The same measure for `O=C(CSc1ccncc1)Nc1ccc2ccccc2c1` [N-naphthalen-2-yl-2-pyridin-4-ylsulfanylacetamide]: more than 50 µM.
The same measure for `CC1Cc2ccccc2N1c1ncnc(N)c1[N+](=O)[O-]` (stereo not drawn) [6-(2-methyl-2,3-dihydro-1H-indol-1-yl)-5-nitro-4-pyrimidinamine]: more than 50 µM; for `Cn1cccc1C(=O)NC(=O)COC(=O)c1cc(S(=O)(=O)N2CCCCC2)ccc1Cl` [[2-[(1-methylpyrrol-2-yl)carbonylamino]-2-oxidanylidene-ethyl] 2-chloranyl-5-piperidin-1-ylsulfonyl-benzoate]: more than 50 µM.
The same measure for `CC(N=Nc1ncc(Cl)cc1Cl)c1ccccn1` (stereo not drawn) [3,5-dichloro-N-(1-pyridin-2-ylethylideneamino)pyridin-2-amine]: 16.7 µM.
The molecule `Cc1cc(NC(=O)CCC(=O)N(Cc2ccco2)C(C(=O)NCC2CCCO2)c2ccncc2)no1` (stereo not drawn) [N'-(furan-2-ylmethyl)-N-(5-methyl-1,2-oxazol-3-yl)-N'-[2-oxidanylidene-2-(oxolan-2-ylmethylamino)-1-pyridin-4-yl-ethyl]butanediamide] showed an IC50 of more than 50 µM.
The same measure for `COc1ccc(Cn2c(=O)[nH]c3cc(C(=O)NC4CCCC4)ccc3c2=O)cc1` [MLS000730065]: more than 50 µM; for `CSc1ccccc1C(=O)NCc1ccc(F)cc1`: more than 50 µM.
With `Cc1c(C#N)c(N)nc(Cl)c1C#N` [2-amino-6-chloro-4-methyl-3,5-pyridinedicarbonitrile] the figure was more than 50 µM.
